Experiments:
Carbonic anhydrase 13 = Carbonic anhydrase 13 (Homo sapiens, UniProt Q8N1Q1); experiment: Binding affinity to recombinant human CA13 by DSF-based fluorescence thermal shift assay
Carbonic anhydrase 4 = Carbonic anhydrase 4 (Homo sapiens, UniProt P22748); experiment: Binding affinity to recombinant human CA4 by DSF-based fluorescence thermal shift assay
Carbonic anhydrase 6 = Carbonic anhydrase 6 (Homo sapiens, UniProt P23280); experiment: Binding affinity to recombinant human CA6 by DSF-based fluorescence thermal shift assay
Sequence of Carbonic anhydrase 6 (P23280 whole entry, the tested form may be a part): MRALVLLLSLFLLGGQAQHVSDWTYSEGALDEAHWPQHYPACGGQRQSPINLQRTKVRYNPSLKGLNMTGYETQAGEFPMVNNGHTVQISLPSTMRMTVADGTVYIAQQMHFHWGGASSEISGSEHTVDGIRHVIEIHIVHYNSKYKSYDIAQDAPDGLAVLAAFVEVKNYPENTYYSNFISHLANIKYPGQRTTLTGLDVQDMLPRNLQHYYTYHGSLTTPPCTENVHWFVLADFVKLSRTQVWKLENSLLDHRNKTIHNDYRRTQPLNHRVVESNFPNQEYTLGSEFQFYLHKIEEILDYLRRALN

Carbonic anhydrase 3 = Carbonic anhydrase 3 (Homo sapiens, UniProt P07451); experiment: Binding affinity to recombinant N-terminal His6x-tagged human CA3 (4 to 260 residues) expressed in Escherichia coli BL21(DE3) by DSF-based fluorescence thermal shift assay
Sequence of Carbonic anhydrase 3 (P07451 whole entry, the tested form may be a part): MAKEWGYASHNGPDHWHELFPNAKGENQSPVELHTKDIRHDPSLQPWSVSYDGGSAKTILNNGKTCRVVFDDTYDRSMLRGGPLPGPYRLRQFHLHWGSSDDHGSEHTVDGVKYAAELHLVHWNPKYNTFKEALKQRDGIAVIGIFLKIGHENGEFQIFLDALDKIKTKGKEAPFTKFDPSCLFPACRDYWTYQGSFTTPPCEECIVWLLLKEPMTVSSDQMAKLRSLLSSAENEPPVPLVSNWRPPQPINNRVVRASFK

Carbonic anhydrase 7 = Carbonic anhydrase 7 (Homo sapiens, UniProt P43166); experiment: Binding affinity to recombinant human CA7 by DSF-based fluorescence thermal shift assay
Sequence of Carbonic anhydrase 7 (P43166 whole entry): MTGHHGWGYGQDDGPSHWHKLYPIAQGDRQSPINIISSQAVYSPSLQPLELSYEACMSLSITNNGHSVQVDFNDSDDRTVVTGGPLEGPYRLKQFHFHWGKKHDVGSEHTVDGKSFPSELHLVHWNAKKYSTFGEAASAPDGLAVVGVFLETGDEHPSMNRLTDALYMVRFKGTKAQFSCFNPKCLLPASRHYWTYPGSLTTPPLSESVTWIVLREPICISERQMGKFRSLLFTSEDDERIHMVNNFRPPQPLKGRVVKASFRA

Carbonic anhydrase 2 [1] = biological target: T1, Carbonic anhydrase 2 (Homo sapiens, UniProt P00918); experiment: Binding affinity to recombinant human CA2 by DSF-based fluorescence thermal shift assay
Carbonic anhydrase 9 = Carbonic anhydrase 9 (Homo sapiens, UniProt Q16790); experiment: Binding affinity to recombinant human CA9 by DSF-based fluorescence thermal shift assay
Carbonic anhydrase 1 = Carbonic anhydrase 1 (Homo sapiens, UniProt P00915); experiment: Binding affinity to recombinant human CA1 by DSF-based fluorescence thermal shift assay
Sequence of Carbonic anhydrase 1 (P00915 whole entry): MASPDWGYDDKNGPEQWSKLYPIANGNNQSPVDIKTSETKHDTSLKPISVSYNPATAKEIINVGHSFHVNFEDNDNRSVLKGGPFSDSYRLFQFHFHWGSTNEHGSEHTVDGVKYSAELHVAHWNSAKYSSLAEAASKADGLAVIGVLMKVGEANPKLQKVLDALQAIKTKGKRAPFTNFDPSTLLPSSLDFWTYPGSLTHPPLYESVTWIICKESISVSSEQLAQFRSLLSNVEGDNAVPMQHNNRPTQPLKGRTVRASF

[2] = biological target: Carbonic anhydrase 5B, mitochondrial (Homo sapiens, UniProt Q9Y2D0); experiment: Binding affinity to recombinant full length N-terminal His6x-tagged human CA5B expressed in Escherichia coli Rosetta 2 (DE3) by DSF-based fluorescence thermal shift assay
Sequence of Carbonic anhydrase 5B, mitochondrial (Q9Y2D0 whole entry): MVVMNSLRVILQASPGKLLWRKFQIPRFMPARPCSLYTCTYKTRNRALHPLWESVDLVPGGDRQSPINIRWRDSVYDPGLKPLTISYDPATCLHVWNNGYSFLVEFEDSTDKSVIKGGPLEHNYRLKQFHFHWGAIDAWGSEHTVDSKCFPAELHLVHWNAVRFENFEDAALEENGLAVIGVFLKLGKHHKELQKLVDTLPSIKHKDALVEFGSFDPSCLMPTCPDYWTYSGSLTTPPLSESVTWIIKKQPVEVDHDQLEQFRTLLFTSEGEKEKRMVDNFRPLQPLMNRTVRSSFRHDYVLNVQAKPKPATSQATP

Carbonic anhydrase 12 = Carbonic anhydrase 12 (Homo sapiens, UniProt O43570); experiment: Binding affinity to recombinant human CA12 by DSF-based fluorescence thermal shift assay
Sequence of Carbonic anhydrase 12 (O43570 whole entry): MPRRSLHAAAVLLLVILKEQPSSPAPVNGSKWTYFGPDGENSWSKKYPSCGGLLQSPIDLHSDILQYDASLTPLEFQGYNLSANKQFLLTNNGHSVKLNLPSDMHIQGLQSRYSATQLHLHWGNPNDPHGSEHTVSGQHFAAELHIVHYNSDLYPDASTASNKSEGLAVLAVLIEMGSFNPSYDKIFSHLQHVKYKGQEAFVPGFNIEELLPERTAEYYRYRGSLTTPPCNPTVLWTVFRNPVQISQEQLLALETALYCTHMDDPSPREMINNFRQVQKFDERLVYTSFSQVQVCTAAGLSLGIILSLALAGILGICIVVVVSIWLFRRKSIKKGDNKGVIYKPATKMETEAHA

[3] = biological target: Carbonic anhydrase 5A, mitochondrial (Homo sapiens, UniProt P35218); experiment: Binding affinity to recombinant full length C-terminal His6x-tagged human CA5A expressed in Escherichia coli BL21(DE3) by DSF-based fluorescence thermal shift assay
Sequence of Carbonic anhydrase 5A, mitochondrial (P35218 whole entry, the tested form may be a part): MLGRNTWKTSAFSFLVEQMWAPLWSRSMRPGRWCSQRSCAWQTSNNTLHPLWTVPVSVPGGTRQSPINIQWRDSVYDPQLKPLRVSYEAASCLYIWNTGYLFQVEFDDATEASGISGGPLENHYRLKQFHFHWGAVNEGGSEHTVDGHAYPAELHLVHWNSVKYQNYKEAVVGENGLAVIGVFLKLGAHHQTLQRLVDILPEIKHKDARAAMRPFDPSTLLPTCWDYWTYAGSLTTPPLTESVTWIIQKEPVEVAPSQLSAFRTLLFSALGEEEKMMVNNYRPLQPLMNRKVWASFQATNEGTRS

Carbonic anhydrase 14 = Carbonic anhydrase 14 (Homo sapiens, UniProt Q9ULX7); experiment: Binding affinity to recombinant N-terminal His6x-tagged human CA14 (20 to 280 residues) catalytic domain expressed in Escherichia coli Rosetta 2 (DE3) by DSF-based fluorescence thermal shift assay
Sequence of Carbonic anhydrase 14 (Q9ULX7 whole entry, the tested form may be a part): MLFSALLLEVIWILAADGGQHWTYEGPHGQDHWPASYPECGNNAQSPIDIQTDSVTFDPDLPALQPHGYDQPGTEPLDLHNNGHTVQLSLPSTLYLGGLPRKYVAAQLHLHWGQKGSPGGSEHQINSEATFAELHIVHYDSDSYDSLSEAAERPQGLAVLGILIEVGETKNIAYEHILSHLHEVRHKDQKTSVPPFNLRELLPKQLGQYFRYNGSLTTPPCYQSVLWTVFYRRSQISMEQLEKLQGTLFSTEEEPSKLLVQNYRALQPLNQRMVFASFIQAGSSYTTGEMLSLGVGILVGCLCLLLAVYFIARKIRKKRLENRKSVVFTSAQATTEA

Carbonic anhydrase 2 [4] = biological target: T1, Carbonic anhydrase 2; experiment: Binding affinity to recombinant human CA2 in pH 7 sodium phosphate buffer at 37 degC by isothermal titration calorimetry

Sequence of Carbonic anhydrase 13 (Q8N1Q1 whole entry): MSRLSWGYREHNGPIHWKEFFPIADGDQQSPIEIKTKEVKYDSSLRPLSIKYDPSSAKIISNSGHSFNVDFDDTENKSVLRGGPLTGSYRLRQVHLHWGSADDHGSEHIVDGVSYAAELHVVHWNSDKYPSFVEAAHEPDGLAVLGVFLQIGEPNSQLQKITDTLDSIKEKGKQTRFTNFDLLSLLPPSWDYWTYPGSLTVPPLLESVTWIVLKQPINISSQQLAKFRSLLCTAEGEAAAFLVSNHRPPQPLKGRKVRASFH
Sequence of Carbonic anhydrase 4 (P22748 whole entry): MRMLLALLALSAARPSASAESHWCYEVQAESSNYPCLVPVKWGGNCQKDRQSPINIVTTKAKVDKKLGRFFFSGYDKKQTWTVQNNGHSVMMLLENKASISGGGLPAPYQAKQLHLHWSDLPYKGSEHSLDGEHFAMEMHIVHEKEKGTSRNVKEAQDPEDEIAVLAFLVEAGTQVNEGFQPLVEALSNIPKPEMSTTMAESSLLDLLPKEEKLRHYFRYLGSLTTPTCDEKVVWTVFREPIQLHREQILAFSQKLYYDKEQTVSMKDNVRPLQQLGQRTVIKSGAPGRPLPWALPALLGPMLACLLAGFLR

SMILES	Kd (Carbonic anhydrase 13) [nM]	Kd (Carbonic anhydrase 4) [µM]	Kd (Carbonic anhydrase 6) [µM]	Kd (Carbonic anhydrase 3) [µM]	Kd (Carbonic anhydrase 7) [nM]	Kd (Carbonic anhydrase 2 [1]) [nM]	Kd (Carbonic anhydrase 9) [nM]	Kd (Carbonic anhydrase 1) [nM]	Kd [2] [nM]	Kd (Carbonic anhydrase 12) [µM]	Kd [3] [µM]	Kd (Carbonic anhydrase 14) [nM]	Kd (Carbonic anhydrase 2 [4]) [nM]
Cc1cc(C)cc(N2CC(C(=O)O)CC2=O)c1 (stereo not drawn)	≥ 200000	≥ 200	≥ 200	≥ 200	≥ 200000	≥ 200000	≥ 200000	≥ 200000	≥ 200000	≥ 200			
Cc1cc(N2CC(C(=O)O)CC2=O)cc(C)c1S(=O)(=O)Cl (stereo not drawn)	≥ 200000	≥ 200	≥ 200	≥ 200	≥ 200000	≥ 200000	≥ 200000	≥ 200000	≥ 200000	≥ 200			
Cc1cc(S(N)(=O)=O)c(C)cc1N1CC(C(=O)N/N=C/c2ccccc2)CC1=O (stereo not drawn)	420	7.6	9.6	≥ 200	1900	1300	1400	7100	28	9.3		470	
Cc1cc(N2CC(C(=O)NN)CC2=O)cc(C)c1S(N)(=O)=O (stereo not drawn)	100000	9.1	50	≥ 200	50000	11000	13000	17000	1400	50	20	5000	
Cc1cc(S(N)(=O)=O)c(C)cc1N1CC(C(=O)NN)CC1=O (stereo not drawn)	2800	14	24	≥ 200	4400	8100	9000	58000	660	21		4000	
COC(=O)C1CC(=O)N(c2cc(C)c(S(N)(=O)=O)cc2C)C1 (stereo not drawn)	580	10	29	≥ 200	31	1600	1600	11000	180	12		840	
Cc1cc(C)n(C(=O)C2CC(=O)N(c3cc(C)c(S(N)(=O)=O)c(C)c3)C2)n1 (stereo not drawn)	3700	6	28	≥ 200	3300	910	2000	1500	500	8.3			318
Cc1cc(S(N)(=O)=O)c(C)cc1N1CC(C(=O)O)CC1=O (stereo not drawn)	670	19	22	160	2700	6400	2600	38000	1100	8.1		3900	
Cc1cc(N2CC(C(=O)N/N=C/c3ccc(Cl)cc3)CC2=O)cc(C)c1S(N)(=O)=O (stereo not drawn)	≥ 200000	18	14	≥ 200	≥ 200000	2000	3300	1700	670	≥ 200			

Further lines, results first:

Kd (Carbonic anhydrase 13) [nM]	Kd (Carbonic anhydrase 4) [µM]	Kd (Carbonic anhydrase 6) [µM]	Kd (Carbonic anhydrase 3) [µM]	Kd (Carbonic anhydrase 7) [nM]	Kd (Carbonic anhydrase 2 [1]) [nM]	Kd (Carbonic anhydrase 9) [nM]	Kd (Carbonic anhydrase 1) [nM]	Kd [2] [nM]	Kd (Carbonic anhydrase 12) [µM]	Kd [3] [µM]	Kd (Carbonic anhydrase 14) [nM]	Kd (Carbonic anhydrase 2 [4]) [nM]	SMILES
8300	5.9	25	≥ 200	20000	12000	5000	20000	3300	7.7	8.3	3200		Cc1cc(N2CC(C(=O)O)CC2=O)cc(C)c1S(N)(=O)=O (stereo not drawn)
	2.5	6.7	≥ 200	460	500	330	4200	4700	2		720		NS(=O)(=O)c1ccc(N2CC(C(=O)O)CC2=O)cc1 (stereo not drawn)
220	0.36	6.3	110	56	220	290	4300	530	1.3			697	Cc1cc(N2CC(C(=O)O)CC2=O)c(Cl)c(C)c1S(N)(=O)=O (stereo not drawn)
200	0.5	4.8	≥ 200	100	140	330	2500	140			40		Cc1cc(N2CC(C(=O)NN)CC2=O)c(Cl)c(C)c1S(N)(=O)=O (stereo not drawn)
33	0.77	1.4	≥ 200	33	56	100	560	20	0.77		12		Cc1cc(N2CC(C(=O)N/N=C/c3ccccc3)CC2=O)c(Cl)c(C)c1S(N)(=O)=O (stereo not drawn)
830	1.3	2	≥ 200	500	170	59	630	1300	2.5	1.7	200		NS(=O)(=O)c1ccc(N2CC(C(=O)N/N=C/c3ccccc3)CC2=O)cc1 (stereo not drawn)
22000	5	25	≥ 200	30000	2200	2000	2200	710	29	2	2000		Cc1cc(N2CC(C(=O)N/N=C/c3ccccc3)CC2=O)cc(C)c1S(N)(=O)=O (stereo not drawn)
56	0.48	0.81	≥ 200	43	50	100	330	18	1.4				Cc1cc(N2CC(C(=O)N/N=C/c3ccc([N+](=O)[O-])cc3)CC2=O)c(Cl)c(C)c1S(N)(=O)=O (stereo not drawn)
17000	4.7	10	≥ 200	33000	1700	2000	1000	400	22				Cc1cc(N2CC(C(=O)N/N=C/c3ccc([N+](=O)[O-])cc3)CC2=O)cc(C)c1S(N)(=O)=O (stereo not drawn)
1100	1.5	0.094	≥ 200	130	150	170	1000	3300	4		96		COC(=O)C1CC(=O)N(c2ccc(S(N)(=O)=O)cc2)C1 (stereo not drawn)
200	0.51	0.65	≥ 200	35	100	91	670	3.8	2				Cc1cc(N2CC(C(=O)N/N=C/c3ccc(Cl)cc3)CC2=O)c(Cl)c(C)c1S(N)(=O)=O (stereo not drawn)
7700	2.2	10	≥ 200	670	500	630	3300	10000	4	50	910		NNC(=O)C1CC(=O)N(c2ccc(S(N)(=O)=O)cc2)C1 (stereo not drawn)
